# Reference: paper PMC4840931 (Clinical cancer research : an official journal of the …, 2015)
# Like-named read-outs stand apart in the source and are kept apart here. Marks after values point to notes of the source that are not given here.
# Legend:
# [1] = system: human umbilical vein endothelial cell; conditions: cited from earlier work
# [2] = system: patients with advanced solid tumors; format: in vivo
# [3] = system: human lung (H146) mouse xenograft; conditions: cited from earlier work
# [4] = cited from earlier work
# [5] = system: human umbilical vein endothelial cell; conditions: cited from earlier work; remark: listed apart in the source
# [6] = system: patients with advanced solid tumors; assay: Tumor response by RECIST version 1.0; format: in vivo, human
# Plasma pharmacokinetics = conditions: human, in vivo
# [7] = system: breast cancer (MDA-MB-231) mouse xenograft; conditions: cited from earlier work
# [8] = Urinary excretion of unchanged lenvatinib; format: in vivo, human; conditions: for fe (fraction of the dose excreted in urine): mean (SD)
structure (smiles),measurement,setting,value
COc1cc2nccc(Oc3ccc(NC(=O)NC4CC4)c(Cl)c3)c2cc1C(N)=O [lenvatinib],VEGF-driven human umbilical vein endothelial cell proliferation,[1],inhibits
same,"Study drug–related TEAE, Hypertension, CTCAE grade 3",[2]; Entire Study Population (N=77),13 (16.9) n (%)
same,"Study drug–related TEAE, Hypertension, CTCAE grade 3+4",[2]; Entire Study Population (N=77),13 (16.9) n (%)
same,"Study drug–related TEAE, Diarrhea, Total",[2]; Melanoma Expansion Cohort 10.0 mg bid (n=26),8 (30.8) n (%)
same,Died during therapy or within 30 days of the last treatment,[2]; expanded melanoma cohort (n=26),30.8%
same,Grade 3 study drug–related toxicity: body weight reduction,"[2]; human, in vivo",8%
same,Grade 3 study drug–related toxicity: diarrhea,"[2]; human, in vivo",5%
same,Grade 3 study drug–related toxicity: fatigue,"[2]; human, in vivo",7%
same,Grade 3 study drug–related toxicity: hypertension,"[2]; human, in vivo",17%
same,Grade 3 study drug–related toxicity: proteinuria,"[2]; human, in vivo",5%
same,"Grade 4 proteinuria, treatment-related","[2]; human, in vivo",1 event
same,"Grade 4 reversible posterior leukoencephalopathy syndrome, treatment-related","[2]; human, in vivo",1 event
same,"Grade 4 thrombocytopenia, treatment-related","[2]; human, in vivo",1 event
same,"Grade 4 thrombotic thrombocytopenic purpura, treatment-related","[2]; human, in vivo",1 event
same,"Study drug–related TEAE, Anorexia, CTCAE grade 1","[2]; human, in vivo",8 (10.4) n (%)
same,"Study drug–related TEAE, Anorexia, CTCAE grade 2","[2]; human, in vivo",11 (14.3) n (%)
same,"Study drug–related TEAE, Anorexia, CTCAE grade 3","[2]; human, in vivo",0 n (%)
same,"Study drug–related TEAE, Anorexia, CTCAE grade 3+4","[2]; human, in vivo",0 n (%)
same,"Study drug–related TEAE, Anorexia, CTCAE grade 4","[2]; human, in vivo",0 n (%)
same,"Study drug–related TEAE, Anorexia, Total","[2]; human, in vivo",19 (24.7) n (%)
same,"Study drug–related TEAE, Any AE, CTCAE grade 1","[2]; human, in vivo",6 (7.8) n (%)
same,"Study drug–related TEAE, Any AE, CTCAE grade 2","[2]; human, in vivo",30 (39.0) n (%)
same,"Study drug–related TEAE, Any AE, CTCAE grade 3","[2]; human, in vivo",28 (36.4) n (%)
same,"Study drug–related TEAE, Any AE, CTCAE grade 3+4","[2]; human, in vivo",32 (41.6) n (%)
same,"Study drug–related TEAE, Any AE, CTCAE grade 4","[2]; human, in vivo",4 (5.2) n (%)
same,"Study drug–related TEAE, Any AE, Total","[2]; human, in vivo",68 (88.3) n (%)
same,"Study drug–related TEAE, Diarrhea, CTCAE grade 1","[2]; human, in vivo",7 (9.1) n (%)
same,"Study drug–related TEAE, Diarrhea, CTCAE grade 2","[2]; human, in vivo",6 (7.8) n (%)
same,"Study drug–related TEAE, Diarrhea, CTCAE grade 3","[2]; human, in vivo",4 (5.2) n (%)
same,"Study drug–related TEAE, Diarrhea, CTCAE grade 3+4","[2]; human, in vivo",4 (5.2) n (%)
same,"Study drug–related TEAE, Diarrhea, CTCAE grade 4","[2]; human, in vivo",0 n (%)
same,"Study drug–related TEAE, Diarrhea, Total","[2]; human, in vivo",17 (22.1) n (%)
same,"Study drug–related TEAE, Fatigue, CTCAE grade 1","[2]; human, in vivo",10 (13.0) n (%)
same,"Study drug–related TEAE, Fatigue, CTCAE grade 2","[2]; human, in vivo",17 (22.1) n (%)
same,"Study drug–related TEAE, Fatigue, CTCAE grade 3","[2]; human, in vivo",5 (6.5) n (%)
same,"Study drug–related TEAE, Fatigue, CTCAE grade 3+4","[2]; human, in vivo",5 (6.5) n (%)
same,"Study drug–related TEAE, Fatigue, CTCAE grade 4","[2]; human, in vivo",0 n (%)
same,"Study drug–related TEAE, Fatigue, Total","[2]; human, in vivo",32 (41.6) n (%)
same,"Study drug–related TEAE, Hypertension, CTCAE grade 1","[2]; human, in vivo",2 (2.6) n (%)
same,"Study drug–related TEAE, Hypertension, CTCAE grade 2","[2]; human, in vivo",18 (23.4) n (%)
same,"Study drug–related TEAE, Hypertension, CTCAE grade 4","[2]; human, in vivo",0 n (%)
same,"Study drug–related TEAE, Hypertension, Total","[2]; human, in vivo",33 (42.9) n (%)
same,"Study drug–related TEAE, Nausea, CTCAE grade 1","[2]; human, in vivo",9 (11.7) n (%)
same,"Study drug–related TEAE, Nausea, CTCAE grade 2","[2]; human, in vivo",8 (10.4) n (%)
same,"Study drug–related TEAE, Nausea, CTCAE grade 3","[2]; human, in vivo",2 (2.6) n (%)
same,"Study drug–related TEAE, Nausea, CTCAE grade 3+4","[2]; human, in vivo",2 (2.6) n (%)
same,"Study drug–related TEAE, Nausea, CTCAE grade 4","[2]; human, in vivo",0 n (%)
same,"Study drug–related TEAE, Nausea, Total","[2]; human, in vivo",19 (24.7) n (%)
same,"Study drug–related TEAE, Proteinuria, CTCAE grade 1","[2]; human, in vivo",7 (9.1) n (%)
same,"Study drug–related TEAE, Proteinuria, CTCAE grade 2","[2]; human, in vivo",18 (23.4) n (%)
same,"Study drug–related TEAE, Proteinuria, CTCAE grade 3","[2]; human, in vivo",4 (5.2) n (%)
same,"Study drug–related TEAE, Proteinuria, CTCAE grade 3+4","[2]; human, in vivo",5 (6.5) n (%)
same,"Study drug–related TEAE, Proteinuria, CTCAE grade 4","[2]; human, in vivo",1 (1.3) n (%)
same,"Study drug–related TEAE, Proteinuria, Total","[2]; human, in vivo",30 (39.0) n (%)
same,"Study drug–related TEAE, Weight decreased, CTCAE grade 1","[2]; human, in vivo",6 (7.8) n (%)
same,"Study drug–related TEAE, Weight decreased, CTCAE grade 2","[2]; human, in vivo",7 (9.1) n (%)
same,"Study drug–related TEAE, Weight decreased, CTCAE grade 3","[2]; human, in vivo",6 (7.8) n (%)
same,"Study drug–related TEAE, Weight decreased, CTCAE grade 3+4","[2]; human, in vivo",6 (7.8) n (%)
same,"Study drug–related TEAE, Weight decreased, CTCAE grade 4","[2]; human, in vivo",0 n (%)
same,"Study drug–related TEAE, Weight decreased, Total","[2]; human, in vivo",19 (24.7) n (%)
same,Study drug–related toxicity: diarrhea,"[2]; human, in vivo",22%
same,Study drug–related toxicity: fatigue,"[2]; human, in vivo",42%
same,Study drug–related toxicity: hypertension,"[2]; human, in vivo",43%
same,Study drug–related toxicity: nausea,"[2]; human, in vivo",25%
same,Study drug–related toxicity: proteinuria,"[2]; human, in vivo",39%
same,Dose-limiting toxicities,[2]; in vivo,no DLTs
same,Died during therapy or within 30 days of the last treatment,[2]; overall population n=77,16.9%
same,Maximum tolerated dose (MTD),"[2]; po bid, continuous dosing, 28-day cycles",10 mg
same,Tumor growth,[3],significantly inhibits
same,Effect of co-administration of CYP3A4 inhibitors and inducers on exposure,[4],neither affected
same,VEGF-driven human umbilical vein endothelial cell tube formation,[5],inhibits
same,Durable SD ≥23 weeks,[6]; all 29 patients with melanoma,24.1%
same,PD,[6]; all 29 patients with melanoma,17.2%
same,PR,[6]; all 29 patients with melanoma,10.3%
same,PRs/uPRs as best response,[6]; all 29 patients with melanoma,17.2%
same,PR or uPR in patients with wild-type BRAF,"[6]; expanded melanoma cohort, 3 of 17 patients",17.6%
same,Responses (PR/uPR) by disease: lung,[6]; in vivo,1/1
same,Responses (PR/uPR) by disease: melanoma,[6]; in vivo,5/29
same,Responses (PR/uPR) by disease: ovarian,[6]; in vivo,1/5
same,Responses (PR/uPR) by disease: pancreatic,[6]; in vivo,1/2
same,Responses (PR/uPR) by disease: renal,[6]; in vivo,1/1
same,Responses (PR/uPR) by disease: thyroid,[6]; in vivo,3/6
same,PR/uPR as best response,"[6]; overall, n=77",15.6%
same,Total PR/uPR/SD≥23 weeks,"[6]; overall, n=77",40.3%
same,Median number of cycles after which confirmed PRs were determined,"[6]; overall, range, 4–46 cycles",18 cycles
same,Confirmed PR,"[6]; schedule 1, 18 patients",no patient
same,PD,"[6]; schedule 1, 18 patients",44.4%
same,uPR,"[6]; schedule 1, NSCLC",One
same,Confirmed PR,"[6]; schedule 2, 33 patients",21.2%
same,Durable SD,"[6]; schedule 2, 33 patients",9 patients
same,PD,"[6]; schedule 2, 33 patients",18.2%
same,"Accumulation, steady state vs single dose",Plasma pharmacokinetics,1.5-2.2 fold
same,Tmax,Plasma pharmacokinetics,1.5 to 3 h
same,Cmax,Plasma pharmacokinetics; 3.2 mg,51.4 (30.5) ng/mL
same,AUC(0-t),"Plasma pharmacokinetics; 3.2 mg, AUC0-6",180 ng·h/mL
same,AUC(0-t),"Plasma pharmacokinetics; 3.2 mg, AUC0-24",407 ng·h/mL
same,AUC0-24,Plasma pharmacokinetics; 5 mg,649.70 (256.151) ng·hr/mL
same,AUC(0-t),"Plasma pharmacokinetics; 5 mg, AUC0-6",245 ng·h/mL
same,Cmax,"Plasma pharmacokinetics; 5 mg, Cmax",62.6 ng/mL
same,AUC0-6,Plasma pharmacokinetics; 8 mg,678 (262) ng·hr/mL
same,AUC0-24,Plasma pharmacokinetics; 8 mg,1819.57 (735.252) ng·hr/mL
same,CL/F,Plasma pharmacokinetics; 8 mg,8.05 L/h
same,Cmax,Plasma pharmacokinetics; 8 mg,168 (73.4) ng/mL
same,Tmax,Plasma pharmacokinetics; 8 mg,2.5 h
same,Vd/F,Plasma pharmacokinetics; 8 mg,86.8 L
same,AUC(0-t),"Plasma pharmacokinetics; 8 mg, AUC0-6",613 ng·h/mL
same,AUC(0-t),"Plasma pharmacokinetics; 8 mg, AUC0-24",1300 ng·h/mL
same,Cmax,"Plasma pharmacokinetics; 8 mg, Cmax",177 ng/mL
same,AUC0-6,Plasma pharmacokinetics; 10 mg,815(320) ng·hr/mL
same,AUC0-24,Plasma pharmacokinetics; 10 mg,1984.94 (971.427) ng·hr/mL
same,Cmax,Plasma pharmacokinetics; 10 mg,209 (107) ng/mL
same,Tmax,Plasma pharmacokinetics; 10 mg,2 h
same,Vd/F,Plasma pharmacokinetics; 10 mg,75.4 L
same,tmax,Plasma pharmacokinetics; 10 mg,3.00 (0.00−6.00) hr
same,AUC(0-t),"Plasma pharmacokinetics; 10 mg, AUC0-6",608 ng·h/mL
same,AUC(0-t),"Plasma pharmacokinetics; 10 mg, AUC0-24",1370 ng·h/mL
same,Cmax,"Plasma pharmacokinetics; 10 mg, Cmax",167 ng/mL
same,Tmax,Plasma pharmacokinetics; 12 mg,1.5 h
same,AUC(0-t),"Plasma pharmacokinetics; 12 mg, AUC0-6",913 ng·h/mL
same,AUC(0-t),"Plasma pharmacokinetics; 12 mg, AUC0-24",1810 ng·h/mL
same,Cmax,"Plasma pharmacokinetics; 12 mg, Cmax",232 ng/mL
same,CL/F,Plasma pharmacokinetics; 16 mg,6.09 L/h
same,Vd/F,Plasma pharmacokinetics; 16 mg,68.5 L
same,AUC(0-t),"Plasma pharmacokinetics; 16 mg, AUC0-6",1510 ng·h/mL
same,Cmax,"Plasma pharmacokinetics; 16 mg, Cmax",341 ng/mL
same,Tumor growth,[7],significantly inhibits
same,fe (fraction of the dose excreted in urine),"[8]; Melanoma Expansion Cohort, Cycle 1 Day 1, 10 mg, n=25",0.45 (0.282) %
same,fe (fraction of the dose excreted in urine),"[8]; Melanoma Expansion Cohort, Cycle 2 Day 1, 10 mg, n=16",0.95 (0.987) %
same,fe (fraction of the dose excreted in urine),"[8]; Schedule 2 continuous daily dosing, Cycle 1 Day 1, 3.2 mg, n=3",0.37 (0.102) %
same,fe (fraction of the dose excreted in urine),"[8]; Schedule 2 continuous daily dosing, Cycle 1 Day 1, 5 mg, n=7",1.47 (0.685) %
same,fe (fraction of the dose excreted in urine),"[8]; Schedule 2 continuous daily dosing, Cycle 1 Day 1, 8 mg, n=10",0.83^a (0.351) %
same,fe (fraction of the dose excreted in urine),"[8]; Schedule 2 continuous daily dosing, Cycle 1 Day 1, 12 mg, n=4",0.68 (0.283) %
same,fe (fraction of the dose excreted in urine),"[8]; Schedule 2 continuous daily dosing, Cycle 2 Day 1, 8 mg, n=6",1.26 (1.168) %
same,fe (fraction of the dose excreted in urine),"[8]; Schedule 2 continuous daily dosing, Cycle 2 Day 1, 16 mg, n=6",1.35 (0.593) %
same,Fraction of the dose excreted unchanged in the urine (fe),"[8]; during the 24 hours following the dose, regardless of dose",< 1.5%
